Converted amounts (≈) assume the structure as drawn. Read-outs that look alike come from different tables or passages of the source.
Legend:
[1] = Solubility characteristics
rats = assay type: in vivo, rat
Method: The ulceration index was determined in rats subjected to constraint for 7 hours.
The vehicle is a 4% aqueous solution of Tween 80 (TM - surface active agent).
The ulcerogenic index is calculated in accordance with the criteria established by […] et al. (Arch. Int. Pharmacodyn; 1971, 190, 6-13).

phenyl benzoquinone = assay: Analgesic activity by the technique of SIEGMUND et al. (phenyl benzoquinone); assay type: in vivo; conditions: read-out: ED50, analgesic activity
Method: The compounds are administered orally 30 minutes before the injection of the phenyl benzoquinone solution.

[2] = Acute toxicity (LD50, method of MILLER and TAINTER) in the conventional mouse; conditions: in vivo, mouse about 20 g
Method: The toxicology study was carried out on the conventional mouse weighing about 20 g.
The substances were administered orally and intraperitoneally. The LD50 is calculated by the method of MILLER and TAINTER (Proc. Soc. Exper. Biol. Med. 1944, 57, 261).

rabbit tooth = assay: Analgesic activity: electrical stimulation of rabbit tooth (CHEYMOL); assay type: in vivo; conditions: for time of maximum activity after administration: 100 mg/kg, administered orally; for analgesic activity compared with the control product (glaphenine): electrical stimulation of rabbit tooth
Text: (b) Electrical stimulation of rabbit tooth in accordance with CHEYMOL - Therapie 1959, XIV, p. 350 to 360.

mice [3] = assay: Potentialization of anesthesia induced by chloral hydrate in mice; assay type: in vivo, mouse; conditions: 350 mg/kg chloral hydrate i.p., compound 100 mg/kg orally 30 minutes in advance
mice [4] = assay: Falling of mice placed on a turning horizontal bar (central properties); assay type: in vivo, mouse; conditions: bar of 4 cm diameter turning at 8 rpm
[5] = rats, oral, dose 100 (unit not given), N = 10, constraint for 7 hours
[6] = oral, 30 minutes before injection of phenyl benzoquinone solution
[7] = ip, intraperitoneal, read-out: LD50, intraperitoneally

Structure (SMILES) | Ulceration index (rats; [5]) | ED50 (phenyl benzoquinone; [6]) | LD50 [2, 7] | LD50 ([2]; oral, read-out: LD50, orally) | time of maximum activity after administration (rabbit tooth) | analgesic activity compared with the control product (glaphenine) (rabbit tooth) | other results
Nc1ccccc1C(=O)OCCNC(=O)c1cccnc1 [β-nicotinamido-ethyl anthranilate] |  |  |  |  |  |  | solubility in alcohol ([1]; alcohol): 2.5%; solubility in dimethyl acetamide ([1]; dimethyl acetamide): 100%; solubility in water ([1]; water): insoluble
O=C(OCC(O)CO)c1ccccc1Nc1ccnc2cc(Cl)ccc12 (stereo not shown) [Glaphenine, reference compound] | 8.8 | 36 mg/kg | ~500 mg/kg | 1500 ± 500 mg/kg |  |  | 
O=C(NCCOC(=O)c1ccccc1Nc1ccnc2cc(C(F)(F)F)ccc12)c1cccnc1 [F 1636, β-nicotinamido-ethyl-N(7-trifluoromethyl-4-quinolyl)-anthranilate] | 4.2 | 15 mg/kg | > 1000 mg/kg | 3200 ± 500 mg/kg | about 60 minutes | better activity than the control product (glaphenine) | solubility in dimethyl formamide ([1]; dimethyl formamide): 8%
CC(=O)Oc1ccccc1C(=O)O [Aspirin, reference compound] |  |  |  |  |  |  | Ulceration index (rats; rat, in vivo, po): 13.1; ED50 (phenyl benzoquinone; po): 100 mg/kg
O=C(NCCOC(=O)c1ccccc1Nc1ccnc2cc(Cl)ccc12)c1cccnc1 [F 1531, β-nicotinamido-ethyl-N(7-chloro 4-quinolyl)-anthranilate] | 5.3 | 28 mg/kg | > 500 mg/kg | 2800 ± 500 mg/kg | about 60 minutes | better activity than the control product (glaphenine) | solubility ([1]; 1 n hcl): 200 mg/mL (≈ 448 mM); effect on anesthesia induced by chloral hydrate (mice [3]): neither potentialization nor decrease in the anesthesia; doses resulting in the falling of mice from turning horizontal bar (mice [4]): identical with the lethal doses

Source: patent US4122181A, “Analgesic (3-micotinamido-N(quinolyl) anthranilates and method of use” (Pierre Fabre S.A., priority 1975, dated 1978)
